Several values for one entry are separate records, joined by “and”; a condition that tells them apart may be missing. Equal entries are not always repeated. Toxic doses and inconclusive results are not listed. The calls were made as follows: active = survival T/C of 150% or more; inactive = T/C below 125% in these data.
Test system: P388 leukemia ip, CD2F1 mice, survival T/C
Assay: NCI In Vivo Anticancer Drug Screen. Data for tumor model P388 Leukemia (intraperitoneal) in CD2F1 (CDF1) mice
Conditions: endpoint: median survival time, higher = longer survival
Procedure, shortened: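 Mice carrying the transplanted tumor received test compound or vehicle. Survival was recorded in each group, and the value is the treated-group measurement divided by that of the vehicle-treated control group.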

[1] = dose: 50.0 mg/kg/injection, schedule: Q01DX009 (ip), vehicle: saline
[2] = dose: 100.0 mg/kg/injection, schedule: Q01DX001 (ip), vehicle: Klucel (hydroxypropylcellulose) (HPC)
[3] = dose: 200.0 mg/kg/injection, schedule: Q01DX001 (ip), vehicle: Klucel (hydroxypropylcellulose) (HPC)
[4] = dose: 50.0 mg/kg/injection, schedule: Q01DX009 (ip), vehicle: saline with Tween-80
[5] = dose: 15.0 mg/kg/injection, schedule: Q01DX005 (ip), vehicle: saline with Tween-80
[6] = dose: 30.0 mg/kg/injection, schedule: Q01DX005 (ip), vehicle: saline with Tween-80
[7] = dose: 60.0 mg/kg/injection, schedule: Q01DX005 (ip), vehicle: saline with Tween-80
[8] = dose: 120.0 mg/kg/injection, schedule: Q01DX005 (ip), vehicle: saline with Tween-80
[9] = dose: 240.0 mg/kg/injection, schedule: Q01DX005 (ip), vehicle: saline with Tween-80
[10] = dose: 240.0 mg/kg/injection, schedule: Q01DX005 (ip), vehicle: Klucel (hydroxypropylcellulose) (HPC)
[11] = dose: 12.5 mg/kg/injection, schedule: Q01DX009 (ip), vehicle: Klucel (hydroxypropylcellulose) (HPC)
[12] = dose: 25.0 mg/kg/injection, schedule: Q01DX009 (ip), vehicle: Klucel (hydroxypropylcellulose) (HPC)
[13] = dose: 50.0 mg/kg/injection, schedule: Q01DX009 (ip), vehicle: Klucel (hydroxypropylcellulose) (HPC)
[14] = dose: 100.0 mg/kg/injection, schedule: Q01DX009 (ip), vehicle: saline
[15] = dose: 200.0 mg/kg/injection, schedule: Q01DX009 (ip), vehicle: saline
[16] = dose: 100.0 mg/kg/injection, schedule: Q01DX009 (ip), vehicle: Klucel (hydroxypropylcellulose) (HPC)
[17] = dose: 100.0 mg/kg/injection, schedule: Q01DX009 (ip), vehicle: saline with Tween-80
[18] = dose: 200.0 mg/kg/injection, schedule: Q01DX009 (ip), vehicle: saline with Tween-80
[19] = dose: 60.0 mg/kg/injection, schedule: Q01DX005 (ip), vehicle: Klucel (hydroxypropylcellulose) (HPC)
[20] = dose: 120.0 mg/kg/injection, schedule: Q01DX005 (ip), vehicle: Klucel (hydroxypropylcellulose) (HPC)

Measured: T/C

CCOC(=O)C[n+]1cccc(S(=O)(=O)NC)c1
inactive: dose: 12.5 mg/kg/injection, schedule: Q01DX009 (ip), vehicle: saline 94 % of control | dose: 25.0 mg/kg/injection, schedule: Q01DX009 (ip), vehicle: saline 94 % of control | [1] 93 % of control

CC(C)(C)C(=Nc1ccccc1)OC(c1ccccc1)(C(F)(F)F)C(F)(F)F
inactive: dose: 100.0 mg/kg/injection, schedule: Q04DX002 (ip), vehicle: Klucel (hydroxypropylcellulose) (HPC) 105 % of control | dose: 200.0 mg/kg/injection, schedule: Q04DX002 (ip), vehicle: Klucel (hydroxypropylcellulose) (HPC) 101 % of control | dose: 400.0 mg/kg/injection, schedule: Q04DX002 (ip), vehicle: Klucel (hydroxypropylcellulose) (HPC) 90 % of control

CN1C(=O)NC(=O)C(C)(C2(Br)CCCCC2)C1=O (stereo not drawn)
inactive: [2] 106 % of control | [3] 99 % of control | dose: 400.0 mg/kg/injection, schedule: Q01DX001 (ip), vehicle: Klucel (hydroxypropylcellulose) (HPC) 99 % of control

C=CC(C)(C)c1ccc(O)c(CC=C(C)C)c1
inactive: dose: 12.5 mg/kg/injection, schedule: Q01DX005 (ip), vehicle: Klucel (hydroxypropylcellulose) (HPC) 100 % of control | dose: 25.0 mg/kg/injection, schedule: Q01DX005 (ip), vehicle: Klucel (hydroxypropylcellulose) (HPC) 102 % of control | dose: 50.0 mg/kg/injection, schedule: Q01DX005 (ip), vehicle: Klucel (hydroxypropylcellulose) (HPC) 102 % of control

CNCCCC12CC(c3ccccc31)c1ccccc12
inactive: [4] 94 % of control

CC1(C)OC2C(CO)OC(n3ncc(=S)[nH]c3=O)C2O1 (stereo not drawn)
inactive: dose: 100.0 mg/kg/injection, schedule: Q04DX003 (ip), vehicle: saline with Tween-80 102 % of control | dose: 200.0 mg/kg/injection, schedule: Q04DX003 (ip), vehicle: saline with Tween-80 86 % of control | dose: 400.0 mg/kg/injection, schedule: Q04DX003 (ip), vehicle: saline with Tween-80 97 % of control

O=C1OC2C(O)COC23OC(O)CCC13O (stereo not drawn)
inactive: [5] 100 % of control | [6] 102 % of control | [7] 102 % of control | dose: 60.0 mg/kg/injection, schedule: Q01DX005 (ip), vehicle: saline 104 % of control | [8] 105 % of control | dose: 120.0 mg/kg/injection, schedule: Q01DX005 (ip), vehicle: saline 102 % of control | [9] 105 % of control | dose: 240.0 mg/kg/injection, schedule: Q01DX005 (ip), vehicle: saline 102 % of control

CC(C)c1cccc(C(C)C)c1NC(=O)Nc1cccc(C(F)(F)F)c1
inactive: dose: 15.0 mg/kg/injection, schedule: Q01DX005 (ip), vehicle: Klucel (hydroxypropylcellulose) (HPC) 88 % of control | dose: 30.0 mg/kg/injection, schedule: Q01DX005 (ip), vehicle: Klucel (hydroxypropylcellulose) (HPC) 93 % of control | [10] 88 % of control

CC(=O)Nc1ccccc1C(=O)C(=O)Nc1ccccc1C(=O)NN
inactive: [7] 106 % of control | [8] 89 % of control | [9] 87 % of control

CCCCCCCCCCCC(C)NCc1ccccc1 (stereo not drawn)
inactive: dose: 6.25 mg/kg/injection, schedule: Q01DX009 (ip), vehicle: Klucel (hydroxypropylcellulose) (HPC) 103 % of control | [11] 112 % of control | [12] 99 % of control | [13] 105 % of control

CCN(CC)CCCOc1ncnc2ccc(Cl)cc12
inactive: dose: 25.0 mg/kg/injection, schedule: Q01DX005 (ip), vehicle: saline 98 % of control | dose: 50.0 mg/kg/injection, schedule: Q01DX005 (ip), vehicle: saline 99 % of control | dose: 100.0 mg/kg/injection, schedule: Q01DX005 (ip), vehicle: saline 93 % of control | dose: 200.0 mg/kg/injection, schedule: Q01DX005 (ip), vehicle: saline 96 % of control

Cc1cc([N+](=O)[O-])c([N+](=O)[O-])cc1Cl
inactive: dose: 50.0 mg/kg/injection, schedule: Q01DX001 (ip), vehicle: other 100 % of control | dose: 100.0 mg/kg/injection, schedule: Q01DX001 (ip), vehicle: other 100 % of control | dose: 200.0 mg/kg/injection, schedule: Q01DX001 (ip), vehicle: other 105 % of control

O=Cc1cccc(O)c1O
inactive: [14] 103 % of control and 110 % of control | [15] 115 % of control

CC1(C)C2CCC1(C)C(OC(=O)/C=C/c1ccc(O)c(O)c1)C2 (stereo not drawn)
inactive: [11] 100 % of control | [12] 98 % of control | [13] 87 % of control | [16] 97 % of control

S=c1[nH]ccc2ccccc12
inactive: [13] 100 % of control | [16] 101 % of control | dose: 200.0 mg/kg/injection, schedule: Q01DX009 (ip), vehicle: Klucel (hydroxypropylcellulose) (HPC) 119 % of control | dose: 400.0 mg/kg/injection, schedule: Q01DX009 (ip), vehicle: Klucel (hydroxypropylcellulose) (HPC) 105 % of control

NC(=O)NC(N)=S
inactive: dose: 25.0 mg/kg/injection, schedule: Q01DX009 (ip), vehicle: saline with Tween-80 100 % of control | [4] 105 % of control | [17] 99 % of control | [18] 98 % of control

CCOC(=O)c1c(C#N)c2cnn(-c3ccccc3)c2n2cccc12
inactive: [5] 98 % of control | [6] 96 % of control | [7] 86 % of control and 91 % of control

CCCCC(O)c1ccc[n+]([O-])c1 (stereo not drawn)
inactive: [1] 94 % of control | [14] 94 % of control | [15] 93 % of control

O=C1c2ccccc2C(=O)c2c(NCCN3CCOCC3)ccc(NCCN3CCOCC3)c21
inactive: [4] 108 % of control | [17] 109 % of control | [18] 115 % of control | dose: 400.0 mg/kg/injection, schedule: Q01DX009 (ip), vehicle: saline with Tween-80 117 % of control

Cc1ccccc1N=Nc1ccc(N(CCCl)CCCl)cc1
inactive: dose: 50.0 mg/kg/injection, schedule: Q01DX001 (ip), vehicle: Klucel (hydroxypropylcellulose) (HPC) 100 % of control | [2] 115 % of control | [3] 100 % of control

C=C1C(=O)OC(C)(C)C1c1ccccc1 (stereo not drawn)
inactive: [13] 96 % of control | [16] 90 % of control

COc1ccc(C2=NC(=O)OC2(C)C)cc1
inactive: [19] 110 % of control | [20] 102 % of control | [10] 108 % of control

Cc1c(OCC(=O)N/N=C/c2ccc(N(CCCl)CCCl)cc2)ccc2c(=O)c3ccccc3oc12
inactive: [19] 96 % of control | [20] 98 % of control

CC1CCC2(C)OC1OC2CN (stereo not drawn)
inactive: dose: 50.0 mg/kg/injection, schedule: Q01DX005 (ip), vehicle: saline with Tween-80 100 % of control | dose: 100.0 mg/kg/injection, schedule: Q01DX005 (ip), vehicle: saline with Tween-80 99 % of control | dose: 200.0 mg/kg/injection, schedule: Q01DX005 (ip), vehicle: saline with Tween-80 100 % of control

— PubChem BioAssay AID330 (DTP/NCI, 2004)
